Data published in ChEMBL document CHEMBL1201862, “PubChem BioAssay data set” (2004).
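Method: 48-hour compound exposure of cells in 96-well plates, five concentrations, linear interpolation of endpoints. GI50 marks 50% less growth.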 Active and inactive are the calls of the source. Cut-off read from the data, not from the text of the source: active = GI50 up to about 1.1 µM and inactive = higher.

Experiments:
Assay in all cases: NCI anticancer screen, dose series, 48 h
[1] = system: OVCAR-5
[2] = system: HT-29
[3] = system: SW-620
[4] = system: UO-31
[5] = system: K562
[6] = system: NCI-H23
[7] = system: KM-20L2
[8] = system: UACC-62
[9] = system: ACHN
[10] = system: XF498
[11] = system: HL-60
[12] = system: CCRF-CEM
[13] = system: OVCAR-8
[14] = system: HCT-116
[15] = system: SF-268
[16] = system: SK-MEL-5
[17] = system: EKVX
[18] = system: NCI-H522
[19] = system: HCT-15
[20] = system: RPMI-8226

Row | SMILES | GI50 [1] | GI50 [2] | GI50 [3] | GI50 [4] | GI50 [5] | GI50 [6] | GI50 [7] | GI50 [8] | GI50 [9] | GI50 [10] | GI50 [11] | GI50 [12] | GI50 [13] | GI50 [14] | GI50 [15] | GI50 [16] | GI50 [17] | GI50 [18] | GI50 [19] [µM] | GI50 [20]
1 | Cc1c2ccccc2c(CO)c2cc(F)c3ccccc3c12 | 28 µM (inactive) | 19.1 µM (inactive) | 37.5 µM (inactive) | 40 µM (inactive) | 23.5 µM (inactive) | 36.5 µM (inactive) | 21.1 µM (inactive) | 27.2 µM (inactive) | 19.5 µM (inactive) | 22.1 µM (inactive) | 17.6 µM (inactive) | 22.3 µM (inactive) | 19.6 µM (inactive) | 19.3 µM (inactive) | 24.5 µM (inactive) | 43.9 µM (inactive) | 29.9 µM (inactive) | 12.9 µM (inactive) | – | –
2 | Cc1ccc(/N=N/C(C2=NC(=O)CS2)c2nc3ccccc3[nH]2)cc1 (stereo not given) | > 100 µM (inactive) | > 100 µM (inactive) | > 100 µM (inactive) | > 100 µM (inactive) | > 100 µM (inactive) | > 100 µM (inactive) | > 100 µM (inactive) | > 100 µM (inactive) | > 100 µM (inactive) | > 100 µM (inactive) | > 100 µM (inactive) | 29.9 µM (inactive) | > 100 µM (inactive) | > 100 µM (inactive) | 38.5 µM (inactive) | > 100 µM (inactive) | > 100 µM (inactive) | > 100 µM (inactive) | > 100 | > 100 µM (inactive)
3 | CCCCCCNC(=O)C(C)C1CCC2(C)C=CC(=O)C(C)=C2C1O (stereo not given) | 99.1 µM (inactive) | > 100 µM (inactive) | > 100 µM (inactive) | > 89.9 µM (inactive) | 68.5 µM (inactive) | > 94 µM (inactive) | > 100 µM (inactive) | > 100 µM (inactive) | – | > 100 µM (inactive) | > 64.4 µM (inactive) | > 100 µM (inactive) | > 100 µM (inactive) | > 100 µM (inactive) | > 100 µM (inactive) | > 74.1 µM (inactive) | > 100 µM (inactive) | 86.3 µM (inactive) | > 100 | > 70.3 µM (inactive)
4 | COc1ccc(/C=C/C(=O)C(C)(C)C)cc1OC | > 100 µM (inactive) | 62.5 µM (inactive) | 79.4 µM (inactive) | > 100 µM (inactive) | 36.7 µM (inactive) | 41.5 µM (inactive) | 41.8 µM (inactive) | 52.6 µM (inactive) | > 100 µM (inactive) | 66.8 µM (inactive) | – | 36.2 µM (inactive) | > 100 µM (inactive) | – | 78.2 µM (inactive) | 54.1 µM (inactive) | > 100 µM (inactive) | 34.8 µM (inactive) | 38.5 | 47.4 µM (inactive)
